Measurements reported in PubChem BioAssay (NCI).
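Method: 48-hour compound exposure of cells in 96-well plates, five concentrations, linear interpolation of endpoints. TGI is the concentration that stops growth completely.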

Tests used:
Assay in all cases: growth of human tumour cells (NCI), 48 h
[1] = tested on: 786-0 renal
[2] = tested on: A549 NSCLC
[3] = tested on: ACHN renal
[4] = tested on: CAKI-1 renal
[5] = tested on: CCRF-CEM leukemia
[6] = tested on: COLO 205 colon
[7] = tested on: DLD-1 colon
[8] = tested on: DMS 114 small cell lung
[9] = tested on: DMS 273 small cell lung
[10] = tested on: EKVX NSCLC
[11] = tested on: HCC-2998 colon
[12] = tested on: HCT-116 colon
[13] = tested on: HCT-15 colon
[14] = tested on: HL-60(TB) leukemia
[15] = tested on: HOP-18 NSCLC
[16] = tested on: HOP-62 NSCLC
[17] = tested on: HT29 colon
[18] = tested on: K-562 leukemia
[19] = tested on: KM12 colon
[20] = tested on: LOX IMVI melanoma
[21] = tested on: M14 melanoma
[22] = tested on: M19-MEL melanoma
[23] = tested on: MALME-3M melanoma
[24] = tested on: MOLT-4 leukemia
[25] = tested on: NCI-H226 lung
[26] = tested on: NCI-H23 lung
[27] = tested on: NCI-H460 lung
[28] = tested on: NCI-H522 lung
[29] = tested on: OVCAR-3 ovarian
[30] = tested on: OVCAR-4 ovarian
[31] = tested on: OVCAR-5 ovarian
[32] = tested on: OVCAR-8 ovarian
[33] = tested on: RPMI-8226 leukemia
[34] = tested on: SF-268 CNS
[35] = tested on: SF-295 CNS
[36] = tested on: SF-539 CNS
[37] = tested on: SK-MEL-2 melanoma
[38] = tested on: SK-MEL-28 melanoma
[39] = tested on: SK-MEL-5 melanoma
[40] = tested on: SN12C renal
[41] = tested on: SNB-19 CNS
[42] = tested on: SNB-75 CNS
[43] = tested on: SNB-78 CNS
[44] = tested on: SR leukemia
[45] = tested on: SW-620 colon
[46] = tested on: TK-10 renal
[47] = tested on: U251 CNS
[48] = tested on: UACC-257 melanoma
[49] = tested on: UO-31 renal
[50] = tested on: XF 498 CNS
[51] = tested on: KM20L2 colon

COc1ccccc1/C=C1\C(=O)N(C(=O)Cc2ccccc2)N=C1C
TGI [1]: > 100 µM
TGI [2]: > 100 µM
TGI [3]: > 100 µM
TGI [4]: > 100 µM
TGI [5]: > 100 µM
TGI [6]: > 100 µM
TGI [7]: > 100 µM
TGI [8]: > 100 µM
TGI [9]: > 100 µM
TGI [10]: > 100 µM
TGI [11]: > 100 µM
TGI [12]: > 100 µM
TGI [13]: > 100 µM
TGI [14]: > 100 µM
TGI [15]: > 100 µM
TGI [16]: > 100 µM
TGI [17]: > 100 µM
TGI [18]: > 100 µM
TGI [19]: > 100 µM
TGI [20]: > 100 µM
TGI [21]: > 100 µM
TGI [22]: > 100 µM
TGI [23]: > 100 µM
TGI [24]: > 100 µM
TGI [25]: > 100 µM
TGI [26]: > 100 µM
TGI [27]: > 100 µM
TGI [28]: > 100 µM
TGI [29]: > 100 µM
TGI [30]: > 100 µM
TGI [31]: > 100 µM
TGI [32]: > 100 µM
TGI [33]: > 100 µM
TGI [34]: > 100 µM
TGI [35]: > 100 µM
TGI [36]: > 100 µM
TGI [37]: > 100 µM
TGI [38]: > 100 µM
TGI [39]: > 100 µM
TGI [40]: > 100 µM
TGI [41]: > 100 µM
TGI [42]: > 100 µM
TGI [43]: > 100 µM
TGI [44]: > 100 µM
TGI [45]: > 100 µM
TGI [46]: > 100 µM
TGI [47]: > 100 µM
TGI [48]: > 100 µM
TGI [49]: > 100 µM
TGI [50]: > 100 µM

CN(C)CCCNc1ccnc2c([N+](=O)[O-])cccc12
TGI [1]: > 100 µM
TGI [2]: 75.5 µM
TGI [3]: > 100 µM
TGI [4]: > 100 µM
TGI [5]: 96 µM
TGI [6]: 5.34 µM
TGI [8]: 5.56 µM
TGI [9]: 32.8 µM
TGI [10]: 36 µM
TGI [11]: 27.1 µM
TGI [12]: 39.1 µM
TGI [13]: 43.7 µM
TGI [16]: 82.5 µM
TGI [17]: 12.1 µM
TGI [19]: > 100 µM
TGI [51]: 16.7 µM
TGI [20]: 39 µM
TGI [21]: > 100 µM
TGI [22]: 5.82 µM
TGI [23]: 8.61 µM
TGI [24]: 66.7 µM
TGI [25]: > 100 µM
TGI [26]: 31.3 µM
TGI [27]: 39.2 µM
TGI [28]: 38.2 µM
TGI [29]: > 100 µM
TGI [30]: 28.5 µM
TGI [32]: 61.6 µM
TGI [33]: 69.4 µM
TGI [34]: 67.4 µM
TGI [35]: 42.2 µM
TGI [36]: 44.5 µM
TGI [38]: > 100 µM
TGI [40]: 28.8 µM
TGI [41]: 54.5 µM
TGI [43]: > 100 µM
TGI [44]: 96.4 µM
TGI [45]: 37.1 µM
TGI [46]: > 100 µM
TGI [47]: > 100 µM
TGI [48]: 30.9 µM
TGI [49]: > 100 µM
TGI [50]: 28.2 µM
